Laboratory results published in patent US12435087B2, “Modulators of DCN-1 and methods of use thereof” (Cellarity, Inc., priority 2023, dated 2025).
Like-named read-outs stand apart in the source and are kept apart here.

Target: DCN1 (DCUND1) protein PONY domain (Homo sapiens (Human), UniProt Q96GG9)
Test: TR-FRET assay (binding to DCN-1, displacement of FAM-labeled probe)
Source text: (§1) The TR-FRET assay was designed following the Scott et al. protocol (Scott et al., Nat Chem Biol. 2017 August; 13(8): 850-857. doi:10.1038/nchembio.2386). The recombinant form of the DCN1 (DCUND1) protein PONY domain was produced using an E. coli expression system at Viva Biotech (China). The DCN1 protein was biotinylated (EZ sulfo-NHS-LC-biotin; Thermofisher) for labeling with streptavidin terbium (Tb) cryptate in the reaction. The probe was changed to a non-covalent DCN1 inhibitor labeled with carboxyfluorescein (FAM; Zhou et al., Nat Commun. 2017; 8: 1150. doi: 10.1038/s41467-017-01243-7). Buffer conditions were modified to enhance protein stability by exchanging Tween20 for TritonX and increasing NaCl to 200 mM. The compounds were screened against 5 nM DCN1 and 20 nM FAM-probe or 0.31 nM DCN1 and 900 nM total probe (100 nM FAM-labeled plus 800 nM unlabeled). The TR-FRET ratio between Tb-DCN1 and the FAM-labeled probe was measured in a 384-well opti-plate (Perkin Elmer) using a plate reader (BMG) at 1, 5, and 24 hrs after treatment with compound (final DMSO concentration of 0.1%). The ratio was normalized to the high (DCN1 and FAM-probe) and low (DCN1 and no probe) controls for a readout of % activity (=100*(x−low)/(high−low).
A TR-FRET assay was performed to evaluate the ability of the compounds to bind the DCN-1 protein.
as §1, with “850-857. Doi: 10.1038/nchembio.2386).” for “850-857. doi:10.1038/nchembio.2386).”, “the DCNI” for “the DCN1”, “1150. Doi:” for “1150. doi:”, “0.1%).” for “0.1%). The ratio was normalized to the high (DCN1 and FAM-probe) and low (DCN1 and no probe) controls for a readout of % activity (=100*(x−low)/(high−low).”

[1] = 24 hr after treatment with compound, read-out: TR FRET IC50 24 hr
[2] = TR FRET IC50 1 hr (nM), 1 hr after treatment with compound
[3] = read-out: TR FRET IC50 1 hr, 1 hr after treatment with compound

Sequence of DCN1 (DCUND1) protein PONY domain (Q96GG9 60-248): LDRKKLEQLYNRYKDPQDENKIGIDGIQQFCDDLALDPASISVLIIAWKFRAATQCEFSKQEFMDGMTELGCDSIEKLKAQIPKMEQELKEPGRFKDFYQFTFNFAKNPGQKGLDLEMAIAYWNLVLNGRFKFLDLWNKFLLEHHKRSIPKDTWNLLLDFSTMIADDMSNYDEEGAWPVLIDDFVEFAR

SMILES	IC50 [1]	IC50 [2]	IC50 [3]
CCN1C(=O)[C@H](NC(=O)c2cccc(C(F)(F)F)c2)[C@@H](c2cccc(NC(=O)C34CC3C4)c2)c2c(C)nn(-c3ccccc3)c21 (mixture of isomers) [Compound I-80]	1000 to 3000 nM	1000 to 3000 nM	
CCN1C(=O)[C@@H](NC(=O)c2cccc(C(F)(F)F)c2)[C@H](c2cccc(CNC(=O)C(F)Cl)c2)c2cnn(-c3ccccc3)c21 (mixture of isomers) [Compound I-100]	1000 to 3000 nM	1000 to 3000 nM	
CCN1C(=O)[C@@H](NC(=O)c2cccc(C(F)(F)F)c2)[C@H](c2ccccc2CNC(=O)C(F)Cl)c2cnn(-c3ccccc3)c21 (mixture of isomers) [Compound I-105]	1000 to 3000 nM	1000 to 3000 nM	
CCN1C(=O)[C@@H](NC(=O)c2cccc(C(F)(F)F)c2)[C@H](c2cccc(CNC(=O)C(C)Cl)c2)c2cnn(-c3ccccc3)c21 (mixture of isomers) [Compound I-112]	1000 to 3000 nM	1000 to 3000 nM	
CCN1C(=O)[C@@H](NC(=O)c2cccc(C(F)(F)F)c2)[C@H](c2ccccc2CNC(=O)C(C)Cl)c2cnn(-c3ccccc3)c21 (mixture of isomers) [Compound I-114]	1000 to 3000 nM	1000 to 3000 nM	
C=C(CN1C[C@@H]2C[C@H]1CO2)C(=O)NCc1cccc([C@@H]2c3cnn(-c4ccccc4)c3N(CC)C(=O)[C@H]2NC(=O)c2nccc(C(F)(F)F)n2)c1 (mixture of isomers) [Compound I-160]	≤ 200 nM		≤ 200 nM
CCN1C(=O)[C@@H](NC(=O)c2nccc(C(F)(F)F)n2)[C@H](c2cccc(C(=O)N3CCC[C@@H]3C#N)c2)c2cnn(-c3ccccc3)c21 (mixture of isomers) [Compound I-250]	1000 to 3000 nM	1000 to 3000 nM	
C=C(CN1CCOCC1)C(=O)N[C@H](C)c1cccc([C@@H]2c3cnn(-c4ccccc4)c3N(CC)C(=O)[C@H]2NC(=O)c2nccc(C(F)(F)F)n2)c1 (mixture of isomers) [Compound I-281]	200 to 1000 nM	1000 to 3000 nM	
C=C(CN1CCN(C2COC2)CC1)C(=O)N[C@H](C)c1cccc([C@@H]2c3cnn(-c4ccccc4)c3N(CC)C(=O)[C@H]2NC(=O)c2nccc(C(F)(F)F)n2)c1 (mixture of isomers) [Compound I-366]	1000 to 3000 nM	1000 to 3000 nM	
CCN1C(=O)[C@@H](NC(=O)c2nccc(C(F)(F)F)n2)[C@H](c2cccc(C(=O)N3CC(F)(F)C[C@H]3C#N)c2)c2cnn(-c3ccccc3)c21 (mixture of isomers) [Compound I-379, N-(rac-(4R,5S)-4-(3-((S)-2-cyano-4,4-difluoropyrrolidine-1-carbonyl)phenyl)-7-ethyl-6-oxo-1-phenyl-4,5,6,7-tetrahydro-1H-pyrazolo[3,4-b]pyridin-5-yl)-4-(trifluoromethyl)pyrimidine-2-carboxamide]	1000 to 3000 nM	1000 to 3000 nM	
C=C(CN1CCN(C2COC2)CC1)C(=O)N[C@@H](C)c1cccc([C@@H]2c3cnn(-c4ccccc4)c3N(CC)C(=O)[C@H]2NC(=O)c2nccc(C(F)(F)F)n2)c1 (mixture of isomers) [Compound I-380]	1000 to 3000 nM	1000 to 3000 nM	
C=C(CN(C)C1COC1)C(=O)Nc1cccc([C@H]2c3c(C)nn(-c4ccccc4)c3N(CC)C(=O)[C@@H]2NC(=O)c2cccc(C(F)(F)F)c2)c1 (racemic) [Compound I-3]	≤ 200 nM		≤ 200 nM
CCN1C(=O)[C@H](NC(=O)c2cccc(C(F)(F)F)c2)[C@@H](c2ccccc2N2CC=CC2=O)c2cnn(-c3ccccc3)c21 (racemic) [Compound I-21]	> 3000 nM	> 3000 nM	
CCN1C(=O)[C@H](NC(=O)c2cccc(C(F)(F)F)c2)[C@@H](c2ccccc2NC(C)=O)c2cnn(-c3ccccc3)c21 (racemic) [Compound I-26, rac-N-((4R,5S)-4-(2-acetamidophenyl)-7-ethyl-6-oxo-1-phenyl-4,5,6,7-tetrahydro-1H-pyrazolo[3,4-b]pyridin-5-yl)-3-(trifluoromethyl)benzamide]	> 3000 nM	> 3000 nM	
CCN1C(=O)[C@@H](NC(=O)c2cccc(C(F)(F)F)c2)[C@H](c2cccc(CNC#N)c2)c2cnn(-c3ccccc3)c21 (racemic) [Compound I-29]	1000 to 3000 nM	1000 to 3000 nM	
CCN1C(=O)[C@@H](NC(=O)c2cccc(C(F)(F)F)c2)[C@H](c2ccccc2CN(C)C#N)c2c(C)nn(-c3ccccc3)c21 (racemic) [Compound I-30]	1000 to 3000 nM	1000 to 3000 nM	
CCN1C(=O)[C@@H](NC(=O)c2cccc(C(F)(F)F)c2)[C@H](c2ccccc2CNC#N)c2cnn(-c3ccccc3)c21 (racemic) [Compound I-31]	1000 to 3000 nM	1000 to 3000 nM	
CCN1C(=O)[C@H](NC(=O)c2cccc(C(F)(F)F)c2)[C@@H](c2cccc(NC(=O)C#CCN3CCOCC3)c2)c2c(C)nn(-c3ccccc3)c21 (racemic) [Compound I-35]	1000 to 3000 nM	1000 to 3000 nM	
CCN1C(=O)[C@@H](NC(=O)c2cccc(C(F)(F)F)c2)[C@H](c2cncc(NC(=O)C3=CCC3)c2)c2cnn(-c3ccccc3)c21 (racemic) [Compound I-36]	1000 to 3000 nM		1000 to 3000 nM
CCN1C(=O)[C@H](NC(=O)c2cccc(C(F)(F)F)c2)[C@@H](c2cccc(N(C)C(=O)/C=C/CN(C)C)c2)c2cnn(-c3ccccc3)c21 (racemic) [Compound I-39]	1000 to 3000 nM	1000 to 3000 nM	
CCN1C(=O)[C@@H](NC(=O)c2cccc(C(F)(F)F)c2)[C@H](c2cccc(CN(C)C#N)c2)c2c(C)nn(-c3ccccc3)c21 (racemic) [Compound I-40]	1000 to 3000 nM	1000 to 3000 nM	
C=C(CC(=O)OC)C(=O)Nc1cccc([C@@H]2c3c(C)nn(-c4ccccc4)c3N(CC)C(=O)[C@H]2NC(=O)c2cccc(C(F)(F)F)c2)c1 (racemic) [Compound I-41]	1000 to 3000 nM	1000 to 3000 nM	
CCN1C(=O)[C@H](NC(=O)c2cccc(C(F)(F)F)c2)[C@@H](c2ccccc2NC(=O)C23CC2C3)c2cnn(-c3ccccc3)c21 (mixture of isomers) [Compound I-45, {N}-[2-[˜{rac}-(4˜{S},5˜{R})-7-ethyl-6-oxo-1-phenyl-5-[[3-(trifluoromethyl)benzoyl]amino]-4,5-dihydropyrazolo[3,4-b]pyridin-4-yl]phenyl]bicyclo[1.1.0]butane-1-carboxamide]	1000 to 3000 nM	1000 to 3000 nM	
CCN1C(=O)[C@@H](NC(=O)c2cccc(C(F)(F)F)c2)[C@H](c2ccccc2CN(C)C#N)c2cnn(-c3ccccc3)c21 (racemic) [Compound I-49]	1000 to 3000 nM	1000 to 3000 nM	
CCN1C(=O)[C@@H](NC(=O)c2cccc(C(F)(F)F)c2)[C@H](c2cccc(CNC(=O)/C=C/CN(C)C)c2)c2cnn(-c3ccccc3)c21 (racemic) [Compound I-53]	1000 to 3000 nM	1000 to 3000 nM	
C=C(CN1CCOCC1)C(=O)Nc1cccc([C@@H]2c3c(C)nn(-c4ccccc4)c3N(CCO)C(=O)[C@@H]2NC(=O)c2cccc(C(F)(F)F)c2)c1 (racemic) [Compound I-55, rac-N-((4R,5R)-7-(2-hydroxyethyl)-3-methyl-4-(3-(2-(morpholinomethyl)acrylamido)phenyl)-6-oxo-1-phenyl-4,5,6,7-tetrahydro-1H-pyrazolo[3,4-b]pyridin-5-yl)-3-(trifluoromethyl)benzamide]	1000 to 3000 nM	1000 to 3000 nM	
CCN1C(=O)[C@@H](NC(=O)c2cccc(C(F)(F)F)c2)[C@H](c2cccc(NC(=O)/C=C/CN(C)C)c2F)c2cnn(-c3ccccc3)c21 (racemic) [Compound I-56]	≤ 200 nM	200 to 1000 nM	
CCN1C(=O)[C@@H](NC(=O)c2cccc(C(F)(F)F)c2)[C@H](c2cccc(NC(=O)C3=CCCN(C)C3)c2)c2cnn(-c3ccccc3)c21 (racemic) [Compound I-58]	≤ 200 nM	1000 to 3000 nM	
CCN1C(=O)[C@@H](NC(=O)c2cccc(C(F)(F)F)c2)[C@H](c2ccccc2CNC(=O)/C=C/C(=O)OC)c2cnn(-c3ccccc3)c21 (racemic) [Compound I-67]	1000 to 3000 nM	1000 to 3000 nM	
C=C(CO)C(=O)Nc1cccc([C@@H]2c3c(C)nn(-c4ccccc4)c3N(CC)C(=O)[C@H]2NC(=O)c2cccc(C(F)(F)F)c2)c1 (racemic) [Compound I-71]	200 to 1000 nM	1000 to 3000 nM	
